From patent US9624208B2, “Benzoxazolinone compounds with selective activity in voltage-gated sodium channels” (Merck Sharp & Dohme Corp., priority 2012, dated 2017)
Where “and” joins values, the source holds several entries; their conditions need not be identical. Equal entries are not always repeated. Where two headings read alike, the source gives them in different places.

Legend:
human Nav1.7 = target: T1, human Nav1.7 (Homo sapiens, UniProt Q15858); experiment: PatchXpress sodium current measurement, inactivated state block, Nav1.7; type: cell-based; conditions: channels stably expressed in HEK 293 cells, double-pulse protocol, 22° C.
T1 construct: expressed in transfected cells
T1 sequence (Q15858 whole entry): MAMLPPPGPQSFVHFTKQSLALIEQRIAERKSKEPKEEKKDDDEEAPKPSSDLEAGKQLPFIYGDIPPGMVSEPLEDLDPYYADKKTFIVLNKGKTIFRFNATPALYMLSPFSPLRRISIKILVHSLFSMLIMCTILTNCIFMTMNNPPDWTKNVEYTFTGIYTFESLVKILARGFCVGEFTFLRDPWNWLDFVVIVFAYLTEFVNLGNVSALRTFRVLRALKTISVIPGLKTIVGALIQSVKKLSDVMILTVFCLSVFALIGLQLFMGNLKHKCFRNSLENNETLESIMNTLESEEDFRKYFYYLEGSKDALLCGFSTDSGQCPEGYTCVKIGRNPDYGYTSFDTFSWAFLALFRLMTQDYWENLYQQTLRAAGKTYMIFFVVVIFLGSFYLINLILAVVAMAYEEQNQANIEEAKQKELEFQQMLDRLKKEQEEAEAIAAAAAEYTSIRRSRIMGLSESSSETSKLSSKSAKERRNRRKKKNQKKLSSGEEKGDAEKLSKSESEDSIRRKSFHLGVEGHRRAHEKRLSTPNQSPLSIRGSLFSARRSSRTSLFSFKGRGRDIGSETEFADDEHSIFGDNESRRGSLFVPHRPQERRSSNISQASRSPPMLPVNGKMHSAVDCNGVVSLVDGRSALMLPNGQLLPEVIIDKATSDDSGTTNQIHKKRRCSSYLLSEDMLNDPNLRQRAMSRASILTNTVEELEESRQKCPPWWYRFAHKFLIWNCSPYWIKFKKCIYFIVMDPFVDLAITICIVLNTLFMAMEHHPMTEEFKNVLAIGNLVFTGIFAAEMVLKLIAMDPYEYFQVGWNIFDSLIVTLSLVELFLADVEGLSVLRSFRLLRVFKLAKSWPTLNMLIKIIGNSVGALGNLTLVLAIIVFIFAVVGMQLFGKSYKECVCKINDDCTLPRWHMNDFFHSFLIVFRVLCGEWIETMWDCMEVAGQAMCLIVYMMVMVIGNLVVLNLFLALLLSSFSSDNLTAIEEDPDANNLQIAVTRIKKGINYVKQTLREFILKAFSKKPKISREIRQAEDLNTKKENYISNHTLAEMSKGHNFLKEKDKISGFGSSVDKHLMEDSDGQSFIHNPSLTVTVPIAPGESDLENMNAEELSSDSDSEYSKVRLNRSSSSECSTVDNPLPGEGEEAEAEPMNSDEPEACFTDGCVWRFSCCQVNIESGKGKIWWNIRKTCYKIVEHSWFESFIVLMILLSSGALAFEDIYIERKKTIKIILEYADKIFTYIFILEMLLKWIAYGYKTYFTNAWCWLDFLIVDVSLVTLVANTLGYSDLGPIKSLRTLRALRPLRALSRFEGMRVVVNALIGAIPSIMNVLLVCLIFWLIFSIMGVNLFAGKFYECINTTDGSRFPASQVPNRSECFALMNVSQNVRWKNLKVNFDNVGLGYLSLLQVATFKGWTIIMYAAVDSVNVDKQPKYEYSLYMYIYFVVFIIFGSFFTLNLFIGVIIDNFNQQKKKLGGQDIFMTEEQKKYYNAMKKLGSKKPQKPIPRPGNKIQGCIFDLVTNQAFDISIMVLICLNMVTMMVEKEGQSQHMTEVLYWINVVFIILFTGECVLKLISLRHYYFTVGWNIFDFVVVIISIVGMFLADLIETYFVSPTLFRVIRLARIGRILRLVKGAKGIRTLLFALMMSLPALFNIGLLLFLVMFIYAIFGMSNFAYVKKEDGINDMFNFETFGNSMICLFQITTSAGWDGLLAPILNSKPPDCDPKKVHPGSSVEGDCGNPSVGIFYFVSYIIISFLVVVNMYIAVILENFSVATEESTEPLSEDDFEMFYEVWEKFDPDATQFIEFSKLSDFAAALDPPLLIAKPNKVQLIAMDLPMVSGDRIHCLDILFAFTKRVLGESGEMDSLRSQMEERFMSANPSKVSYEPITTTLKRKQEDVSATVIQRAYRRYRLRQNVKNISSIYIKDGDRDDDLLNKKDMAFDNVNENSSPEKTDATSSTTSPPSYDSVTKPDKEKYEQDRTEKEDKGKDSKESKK
Protocol: (§1) Cell Based Assays for Nav 1.7 and Nav 1.5 Activity
(§2) Compounds were tested on human Nav1.7 and Nav1.5 channels stably expressed in HEK 293 cells.
(§3) Sodium Current Measurements on the PatchXpress 7000:
(§4) To measure inactivated state block of sodium channels, test compounds were characterized in an automated PatchXpress® assay (Molecular Devices) using a double-pulse protocol on human Nav1.7 and Nav1.5 channels stably expressed in HEK 293 cells. Cells were held at a potential 20 mV negative to the potential at which ˜50% of the channels are inactivated. A 8000 ms pre-pulse 7 mV positive to the potential at which ˜50% of the channels are inactivated was given followed by a hyperpolarizing 2 ms pulse to −120 mV and a 20 ms test pulse to −20 mV. The protocol was applied to cells in the absence, presence of compound and after washout. The temperature of PatchXpress® instruments was maintained at 22° C. The following recording solutions were used. Internal solution (mM): 30 CsCl, 5 HEPES, 10 EGTA, 120 CsF, 5 NaF, 2 MgCl2, pH 7.3 with CsOH. External solution (mM): 120 NMDG, 40 NaCl, 1 KCl, 0.5 MgCl2, 5 HEPES, 2.7 CaCl2, pH 7.5 with NMDG-OH. Estimated IC50 values were calculated based on at least two compound concentrations tested. For all electrophysiology experiments, offline analysis was used to correct for current rundown and to determine percent inhibition as a function of drug concentration. IC50 values were determined by fitting to the Hill equation.

human Nav1.5 = target: T2, human Nav1.5 (Homo sapiens, UniProt Q14524); experiment: PatchXpress sodium current measurement, inactivated state block, Nav1.5; type: cell-based; conditions: determined by PatchXpress measurement, HEK 293 cells
T2 construct: expressed in transfected cells
T2 sequence (Q14524 whole entry): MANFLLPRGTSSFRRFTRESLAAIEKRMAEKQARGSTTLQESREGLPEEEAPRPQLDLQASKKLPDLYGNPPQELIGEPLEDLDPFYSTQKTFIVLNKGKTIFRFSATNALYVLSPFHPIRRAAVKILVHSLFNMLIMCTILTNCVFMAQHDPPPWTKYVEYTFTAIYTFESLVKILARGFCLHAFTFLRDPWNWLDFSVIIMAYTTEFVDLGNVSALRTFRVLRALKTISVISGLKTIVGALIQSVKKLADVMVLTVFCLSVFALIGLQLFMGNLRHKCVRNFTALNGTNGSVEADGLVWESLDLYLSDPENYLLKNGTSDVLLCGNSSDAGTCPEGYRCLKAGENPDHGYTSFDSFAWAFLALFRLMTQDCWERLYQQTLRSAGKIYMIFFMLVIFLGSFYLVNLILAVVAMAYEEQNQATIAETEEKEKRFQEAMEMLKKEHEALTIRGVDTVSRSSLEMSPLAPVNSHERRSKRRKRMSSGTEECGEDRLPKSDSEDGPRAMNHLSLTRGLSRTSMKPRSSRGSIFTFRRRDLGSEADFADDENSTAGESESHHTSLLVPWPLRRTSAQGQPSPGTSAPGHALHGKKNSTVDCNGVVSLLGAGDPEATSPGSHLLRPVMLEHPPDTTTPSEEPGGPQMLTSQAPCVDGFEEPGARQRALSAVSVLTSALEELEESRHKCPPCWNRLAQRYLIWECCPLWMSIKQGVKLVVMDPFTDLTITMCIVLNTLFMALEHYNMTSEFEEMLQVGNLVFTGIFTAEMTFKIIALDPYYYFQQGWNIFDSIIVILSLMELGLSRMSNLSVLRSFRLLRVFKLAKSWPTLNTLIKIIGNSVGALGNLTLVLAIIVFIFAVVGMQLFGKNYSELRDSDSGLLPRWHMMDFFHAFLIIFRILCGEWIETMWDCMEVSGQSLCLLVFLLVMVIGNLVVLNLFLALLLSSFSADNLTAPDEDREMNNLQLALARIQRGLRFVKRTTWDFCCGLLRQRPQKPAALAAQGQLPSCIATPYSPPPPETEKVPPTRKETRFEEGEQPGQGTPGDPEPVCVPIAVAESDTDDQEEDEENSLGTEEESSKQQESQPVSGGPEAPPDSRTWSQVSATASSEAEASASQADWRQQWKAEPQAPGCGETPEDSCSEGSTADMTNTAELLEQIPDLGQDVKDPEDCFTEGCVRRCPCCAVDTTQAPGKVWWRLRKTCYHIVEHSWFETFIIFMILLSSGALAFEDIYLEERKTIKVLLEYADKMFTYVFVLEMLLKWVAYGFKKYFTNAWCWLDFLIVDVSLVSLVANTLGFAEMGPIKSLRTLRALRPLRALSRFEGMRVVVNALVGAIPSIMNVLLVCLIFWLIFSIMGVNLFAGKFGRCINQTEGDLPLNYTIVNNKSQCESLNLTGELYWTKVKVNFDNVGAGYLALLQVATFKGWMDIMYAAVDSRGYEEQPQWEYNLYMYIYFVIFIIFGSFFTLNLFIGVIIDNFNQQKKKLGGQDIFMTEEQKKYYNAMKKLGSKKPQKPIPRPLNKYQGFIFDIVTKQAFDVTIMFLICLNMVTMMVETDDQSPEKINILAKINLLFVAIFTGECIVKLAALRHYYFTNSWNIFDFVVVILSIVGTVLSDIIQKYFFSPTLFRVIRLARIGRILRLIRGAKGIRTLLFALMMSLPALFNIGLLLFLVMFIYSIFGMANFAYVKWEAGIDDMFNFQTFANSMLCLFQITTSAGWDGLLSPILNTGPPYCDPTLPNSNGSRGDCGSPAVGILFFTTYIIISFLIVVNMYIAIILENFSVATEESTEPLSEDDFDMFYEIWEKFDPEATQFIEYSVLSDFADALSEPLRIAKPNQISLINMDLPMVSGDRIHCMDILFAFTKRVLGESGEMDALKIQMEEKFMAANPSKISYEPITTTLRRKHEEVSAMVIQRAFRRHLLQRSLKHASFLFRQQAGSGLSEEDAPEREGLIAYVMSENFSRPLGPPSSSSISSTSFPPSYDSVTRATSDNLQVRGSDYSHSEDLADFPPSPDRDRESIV
Protocol: as §1, §2, §3, §4

[1] = read-out: potency for the Nav 1.7 sodium ion channel (1.7=)

| IC50 (human Nav1.7; [1]) | SMILES | ratio of Nav 1.5:Nav 1.7 potency (human Nav1.5) | IC50 (human Nav1.7; potency for the Nav 1.7 sodium ion channel (1.7=)) [nM] |
| --- | --- | --- | --- |
| 25 nM | C[C@H](c1ccccc1C#C[C@H]1CCCC[C@@H]1N)n1c(=O)oc2cc(S(=O)(=O)Nc3cccc(F)n3)c(F)cc21 (mixture of isomers) [Ex8-5, 3-[(1R)-1-(2-{[(1R,2S and 1S, 2R)-2-aminocyclohexyl]ethynyl}phenyl)ethyl]-5-fluoro-N-(6-fluoropyridin-2-yl)-2-oxo-2,3-dihydro-1,3-benzoxazole-6-sulfonamide] | 714 | – |
| 1140 nM | Cl.O=c1oc2cc(S(=O)(=O)Nc3cccc(F)n3)c(F)cc2n1Cc1cccc2c1CNCC2F (racemic) [Ex5-9, (+/−)-5-Fluoro-3-((4-fluoro-1,2,3,4-tetrahydroisoquinolin-8-yl)methyl)-N-(6-fluoropyridin-2-yl)-2-oxo-2,3-dihydrobenzo[d]oxazole-6-sulfonamide hydrochloride] | 26 | – |
| 89 nM | Cl.NC1CCc2cccc(Cn3c(=O)oc4cc(S(=O)(=O)Nc5cccc(F)n5)c(F)cc43)c2C1 (single isomer, unassigned) [Ex13-4, (S or R)-3-((7-Amino-5,6,7,8-tetrahydronaphthalen-1-yl)methyl)-5-fluoro-N-(6-fluoropyridin-2-yl)-2-oxo-2,3-dihydrobenzo[d]oxazole-6-sulfonamide hydrochloride] | 304 | – |
| 40 nM | NC1CCc2cccc(Cn3c(=O)oc4cc(S(=O)(=O)Nc5cccc(F)n5)c(F)cc43)c2C1 (single isomer, unassigned) [Ex13-5, (R or S)-3-[(7-amino-5,6,7,8-tetrahydronaphthalen-1-yl)methyl]-5-fluoro-N-(6-fluoropyridin-2-yl)-2-oxo-2,3-dihydro-1,3-benzoxazole-6-sulfonamide] | 914 | – |
| 147 nM | NC1CCc2cccc(Cn3c(=O)oc4cc(S(=O)(=O)Nc5cccc(F)n5)ccc43)c2C1 (single isomer, unassigned) [Ex13-6, (S or R)-3-[(7-amino-5,6,7,8-tetrahydronaphthalen-1-yl)methyl]-N-(6-fluoropyridin-2-yl)-2-oxo-2,3-dihydro-1,3-benzoxazole-6-sulfonamide] | 43 | – |
| 24 nM | Cc1cc2c(cc1S(=O)(=O)Nc1cccc(F)n1)oc(=O)n2Cc1cccc2c1CC(N)CC2 (single isomer, unassigned) [Ex17-5, (R or S)-3-[(7-amino-5,6,7,8-tetrahydronaphthalen-1-yl)methyl]-N-(6-fluoropyridin-2-yl)-5-methyl-2-oxo-2,3-dihydro-1,3-benzoxazole-6-sulfonamide] | 310 | – |
| 12 nM | Cc1cc2c(cc1S(=O)(=O)Nc1cccc(F)n1)oc(=O)n2Cc1cccc2c1CC(N)CC2 (single isomer, unassigned) [Ex17-6, (S or R)-3-[(7-amino-5,6,7,8-tetrahydronaphthalen-1-yl)methyl]-N-(6-fluoropyridin-2-yl)-5-methyl-2-oxo-2,3-dihydro-1,3-benzoxazole-6-sulfonamide] | 178 | – |
| 961 nM | O=c1oc2cc(S(=O)(=O)Nc3cccc(F)n3)c(F)cc2n1Cc1cccc2c1CNCC2F (single isomer, unassigned; enantiomer 1) [Ex5-10, (R or S)-5-fluoro-N-(6-fluoropyridin-2-yl)-3-[(4-fluoro-1,2,3,4-tetrahydroisoquinolin-8-yl)methyl]-2-oxo-2,3-dihydro-1,3-benzoxazole-6-sulfonamide (enantiomer 1)] | > 31 | – |
| 727 nM | O=c1oc2cc(S(=O)(=O)Nc3cccc(F)n3)c(F)cc2n1Cc1cccc2c1CNCC2F (single isomer, unassigned; enantiomer 2) [Ex5-11, (S or R)-5-fluoro-N-(6-fluoropyridin-2-yl)-3-[(4-fluoro-1,2,3,4-tetrahydroisoquinolin-8-yl)methyl]-2-oxo-2,3-dihydro-1,3-benzoxazole-6-sulfonamide (enantiomer 2)] | 54 | – |
| 152 nM | C[C@H](c1cccc2c1CNCC2)n1c(=O)oc2cc(S(=O)(=O)Nc3cccc(F)n3)ccc21.Cl [Ex2-5, (R)—N-(6-fluoropyridin-2-yl)-2-oxo-3-(1-(1,2,3,4-tetrahydroisoquinolin-8-yl)ethyl)-2,3-dihydrobenzo[d]oxazole-6-sulfonamide hydrochloride] | 316 | – |
| 99 nM | C[C@H](c1cccc2c1CNCC2)n1c(=O)oc2cc(S(=O)(=O)Nc3cccc(F)n3)c(F)cc21.Cl [Ex3-5, (R)-5-fluoro-N-(6-fluoropyridin-2-yl)-2-oxo-3-(1-(1,2,3,4-tetrahydroisoquinolin-8-yl)ethyl)-2,3-dihydrobenzo[d]oxazole-6-sulfonamide hydrochloride] | 158 | – |
| 482 nM | Nc1ccc2c(c1)C(n1c(=O)oc3cc(S(=O)(=O)Nc4cccc(F)n4)c(F)cc31)CCC2 (centres unmarked) [Ex4-4, 3-(7-Amino-1,2,3,4-tetrahydronaphthalen-1-yl)-5-fluoro-N-(6-fluoropyridin-2-yl)-2-oxo-2,3-dihydro-1,3-benzoxazole-6-sulfonamide] | 166 | – |
| 650 nM | O=c1oc2cc(S(=O)(=O)Nc3cccc(F)n3)c(F)cc2n1C1CCCc2ccc(F)cc21 (centres unmarked) [Ex4-5, 5-fluoro-N-(6-fluoropyridin-2-yl)-3-(7-fluoro-1,2,3,4-tetrahydronaphthalen-1-yl)-2-oxo-2,3-dlihydro-1,3-benzoxazole-6-sulfonamide] | 101 | – |
| 3 nM | C[C@H](c1ccccc1C1=CCNCC1)n1c(=O)oc2cc(S(=O)(=O)Nc3cccc(F)n3)c(F)cc21 [Ex7-5, (R)-5-Fluoro-N-(6-fluoropyridin-2-yl)-2-oxo-3-(1-(2-(1,2,3,6-tetrahydropyridin-4-yl)phenyl)ethyl)-2,3-dihydrobenzo[d]oxazole-6-sulfonamide] | 1398 | – |
| 460 nM | C[C@H](c1ccccc1C1=CCC(N)CC1)n1c(=O)oc2cc(S(=O)(=O)Nc3cccc(F)n3)c(F)cc21 (stereo partly drawn) [Ex7-6, 3-{(1R)-1-[2-(4-aminocyclohex-1-en-1-yl)phenyl]ethyl}-5-fluoro-N-(6-fluoropyridin-2-yl)-2-oxo-2,3-dihydro-1,3-benzoxazole-6-sulfonamide] | 123 | – |
| 41 nM | C[C@H](c1ccccc1C1=CCNCCC1)n1c(=O)oc2cc(S(=O)(=O)Nc3cccc(F)n3)c(F)cc21 [Ex7-7, 5-fluoro-N-(6-fluoropyridin-2-yl)-2-oxo-3-{(1R)-1-[2-(2,5,6,7-tetrahydro-1H-azepin-4-yl)phenyl]ethyl}-2,3-dihydro-1,3-benzoxazole-6-sulfonamide] | 239 | – |
| – | C[C@H](c1ccccc1C1=C[C@@H]2CC[C@H](C1)N2)n1c(=O)oc2cc(S(=O)(=O)Nc3cccc(F)n3)c(F)cc21 [Ex7-8, 3-[(1R)-1-{2-[(1S,5R)-8-azabicyclo[3.2.1]oct-2-en-3-yl]phenyl}ethyl]-5-fluoro-N-(6-fluoropyridin-2-yl)-2-oxo-2,3-dihydro-1,3-benzoxazole-6-sulfonamide] | 681 | 81 |
| 127 nM | C[C@H](c1cccc(C2=CCNCC2)c1)n1c(=O)oc2cc(S(=O)(=O)Nc3cccc(F)n3)c(F)cc21 [Ex7-10, 5-fluoro-N-(6-fluoropyridin-2-yl)-2-oxo-3-{(1R)-1-[3-(1,2,3,6-tetrahydropyridin-4-yl)phenyl]ethyl}-2,3-dihydro-1,3-benzoxazole-6-sulfonamide] | 331 | – |
| 65 nM | C[C@H](c1cccc(C2=CCCNC2)c1)n1c(=O)oc2cc(S(=O)(=O)Nc3cccc(F)n3)c(F)cc21 [Ex7-11, 5-fluoro-N-(6-fluoropyridin-2-yl)-2-oxo-3-{(1R)-1-[3-(1,2,5,6-tetrahydropyridin-3-yl)phenyl]ethyl}-2,3-dihydro-1,3-benzoxazole-6-sulfonamide] | 461 | – |
| 50 nM | C[C@H](c1ccccc1C#CCN)n1c(=O)oc2cc(S(=O)(=O)Nc3cccc(F)n3)c(F)cc21 [Ex8-1, (R)-3-(1-(2-(3-Aminoprop-1-yn-1-yl)phenyl)ethyl)-5-fluoro-N-(6-fluoropyridin-2-yl)-2-oxo-2,3-dihydrobenzo[d]oxazole-6-sulfonamide] | 546 | – |
| 27 nM and 18 nM | C[C@H](c1ccccc1CCN)n1c(=O)oc2cc(S(=O)(=O)Nc3cccc(F)n3)c(F)cc21 [Ex24-2, 3-{(1R)-1-[2-(2-aminoethyl)phenyl]ethyl}-5-fluoro-N-(6-fluoropyridin-2-yl)-2-oxo-2,3-dihydro-1,3-benzoxazole-6-sulfonamide] | – | – |
